US5138059A, “DC-89 compounds and process for their preparation” (priority 1988, dated 1992)
In brackets after ≈: the same amount, converted by molar mass.

Assays:
Sarcoma 180 solid tumor = test: Therapeutical effect against Sarcoma 180 solid tumor; format: in vivo, ddY male mice; details: 10 days after implantation
Description: Six ddY male mice each weighing about 20 g were used for each group, and 5×10^6 Sarcoma 180 solid tumor cells were implanted subcutaneously into the mice at the axilla. Twenty-four hours after the implantation, 0.2 ml of a phosphate buffer saline (hereinafter referred to as PBS) containing the DC-89 compound in the concentration shown in Table 3 was intraperitoneally administered once.
The composition of PBS was 0.8 g/dl NaCl, 0.02 g/dl KCl, […] Na2 HPO4 and 0.02 g/dl KH2 PO4 (pH 7.2).
For comparison, 0.2 ml of PBS containing mitomycin C was intraperitoneally administered 24 hours after implantation of the tumor cells.
Ten days after the implantation, T/C [T: average tumor volume (mm^3) of the test groups, C: average tumor volume (mm^3) of the control group which received an intraperitoneal administration of 0.2 ml of PBS] was determined.

Solubility = format: physicochemical
[1] = Acute toxicity (LD50), intraperitoneal, mice; details: mouse, in vivo, ip
[2] = tested on: Klebsiella pneumoniae ATCC 10031; test: Antibacterial activity, agar dilution method (MIC); format: cell-based; details: ATCC10031; Klebsiella pneumoniae ATCC 10031, agar dilution, pH 7; read-out: Minimum inhibitory concentration (MIC)
Description: (§1) The antibacterial activity was determined by the agar dilution method using a medium (pH 7) prepared by dissolving 3 g of Bacto-tryptone (Difco Laboratories), 3 g of meat extract, 1 g of yeast extract, 1 g of glucose and 16 g of agar in 1 liter of water.

[3] = tested on: Bacillus subtilis No. 10707; test: Antibacterial activity, agar dilution method (MIC); format: cell-based; details: Bacillus subtilis No. 10707, agar dilution, pH 7; read-out: Minimum inhibitory concentration (MIC)
Description: as §1

[4] = tested on: Salmonella typhi ATCC 9992; test: Antibacterial activity, agar dilution method (MIC); format: cell-based; details: Salmonella enterica; Salmonella typhi ATCC 9992, agar dilution, pH 7; read-out: Minimum inhibitory concentration (MIC)
Description: as §1

Escherichia coli ATCC 26 = test: Antibacterial activity, agar dilution method (MIC); format: cell-based; details: ATCC26; Escherichia coli ATCC 26, agar dilution, pH 7; read-out: Minimum inhibitory concentration (MIC)
Description: as §1

[5] = tested on: Staphylococcus aureus ATCC 6538P; test: Antibacterial activity, agar dilution method (MIC); format: cell-based; details: ATCC6538P, pH 7, read-out: Minimum inhibitory concentration (MIC)
Description: as §1

[6] = tested on: lymphocytic leukemia P388; test: Therapeutical effect against lymphocytic leukemia P388; format: in vivo, male CDF1 mice
Description: Five male CDF1 mice each weighing about 22 g were used for each group, and 1×10^6 cells of lymphocytic leukemia P388 tumor cells were implanted intraperitoneally into the mice. Twenty-four hours after the implantation, 0.2 ml of PBS containing the DC-89 compound was intraperitoneally administered once. For comparison, 0.2 ml of PBS containing mitomycin C was intraperitoneally administered 24 hours after implantation of the tumor cells. The increased life span (T/C) [T: mean survival time (days) of the test groups, C: mean survival time (days) of the control group which received an intraperitoneal administration of 0.2 ml of PBS] after the implantation is shown in Table 4.

[7] = in methanol, ethanol, ethyl acetate, acetone, chloroform and dimethylsulfoxide
[8] = 4 mg/kg, i.p. 24 h after implantation

SMILES | T/C (average tumor volume) (Sarcoma 180 solid tumor; 3 mg/kg, i.p. once 24 h after implantation) | Solubility (Solubility; [7]) | Solubility (Solubility; in water and n-hexane) | LD50 [1] [mg/kg] | MIC [2] [µg/mL] | MIC [3] [µg/mL] | MIC [4] [µg/mL] | MIC (Escherichia coli ATCC 26) [µg/mL] | MIC [5] [µg/mL] | Increased Life Span (T/C) (mean survival time) ([6]; 0.125 mg/kg, i.p. once 24 h after implantation) | T/C (average tumor volume) (Sarcoma 180 solid tumor; 0.5 mg/kg, i.p. once 24 h after implantation) | Increased Life Span (T/C) (mean survival time) ([6]; 0.0156 mg/kg, i.p. once 24 h after implantation) | T/C (average tumor volume) (Sarcoma 180 solid tumor; 0.25 mg/kg, i.p. once 24 h after implantation) | Increased Life Span (T/C) (mean survival time) ([6]; 0.0781 mg/kg, i.p. once 24 h after implantation) | T/C (average tumor volume) (Sarcoma 180 solid tumor; [8]) | Increased Life Span (T/C) (mean survival time) [6, 8]
COC(=O)C1(C)Nc2c(O)cc3c(c2C1=O)C(CCl)CN3C(=O)c1cc2cc(OC)c(OC)c(OC)c2[nH]1 (centres unmarked) [DC-89A2] | 0.19 | readily soluble | sparingly soluble | ~3.83 | 0.42 (≈ 0.772 µM) | 0.0065 (≈ 0.0119 µM) | 10.4 (≈ 19.1 µM) | 5.2 (≈ 9.56 µM) | 0.052 (≈ 0.0956 µM) | 1.35 |  |  |  |  |  | 
COC(=O)C1(C)Nc2c(O)cc3c(c2C1=O)CC(Br)CN3C(=O)c1cc2cc(OC)c(OC)c(OC)c2[nH]1 (centres unmarked) [DC-89B1] |  | readily soluble | sparingly soluble | ~0.37 | 0.026 (≈ 0.0442 µM) | 0.013 (≈ 0.0221 µM) | 1.3 (≈ 2.21 µM) | 0.33 (≈ 0.561 µM) | 0.0008 (≈ 0.00136 µM) |  | 0.22 | 1.35 |  |  |  | 
COC(=O)C1(C)Nc2c(O)cc3c(c2C1=O)C(CBr)CN3C(=O)c1cc2cc(OC)c(OC)c(OC)c2[nH]1 (centres unmarked) [DC-89B2] |  | readily soluble | sparingly soluble | ~0.28 | 0.1 (≈ 0.17 µM) | 0.0033 (≈ 0.00561 µM) | 2.6 (≈ 4.42 µM) | 1.3 (≈ 2.21 µM) | 0.0033 (≈ 0.00561 µM) |  |  |  | 0.28 | 1.19 |  | 
CO[C@@]12[C@H](COC(N)=O)C3=C(C(=O)C(C)=C(N)C3=O)N1C[C@@H]1N[C@@H]12 [Mitomycin C, mitomycin C, reference compound] |  |  |  |  |  |  |  |  |  |  |  |  |  |  | 0.30 | 1.66
